{"source": "patent EP0507256A2", "about": "“Tyrosine phosphorylation in protozoa” (Bristol-Myers Squibb Company, priority 1991, dated 1992)", "key": {"TREU 667 procyclic forms [1]": {"tested_on": "TREU 667 procyclic forms", "test": "Anti-p-tyr immunoblot (Western) analysis of protein tyrosine phosphorylation after orthovanadate treatment", "assay_type": "cell-based, T. brucei", "set-up": "level of protein tyrosine phosphorylation of specific substrates, particularly ptp40 and ptp42: dose or concentration left out as unconfirmed", "experimental": "In the drawings: • FIGURE 1 illustrates the specificity of reactivity with anti-p-tyr antibodies. Lysate from the monomorphic trypanosome strain EATRO 164, clone IHRI 1, procyclic forms (10⁷ cells) was loaded per lane on a 10% sodium dodecyl sulfate polyacrylamide gel electrophoresis (SDS-PAGE) gel. Proteins were transferred to polyvinylidene difluoride membranes, incubated with anti-p-tyr antibodies, and followed by treatment with ¹²⁵I-protein A. Panel A: 0.25 µg ml⁻¹ anti-p-tyr antibodies. Panel B: 1 µg ml⁻¹ anti-p-tyr antibodies, plus 40 mM phenyl phosphate. Molecular weight markers are indicated. Lanes 1 and 2 differ only in the concentration of orthovanadate used during cell processing. • FIGURE 2 illustrates immunoprecipitation and phosphoamino acid analysis. Panel 2A: Western analysis of anti-p-tyr immunoprecipitates. Immunoreactive proteins were enriched by immunoprecipitation as described herein. Each lane was loaded with material corresponding to the same amount of cell lysate. Lanes: 1) total cell lysate; 2) lysate cleared of proteins reactive with anti-p-tyr; 3) eluate from anti-p-tyr immunoprecipitation. Panel 2B: Two-dimensional phosphoamino acid analysis. Procyclic forms were metabolically labelled with [³²P] orthophosphate, and proteins reactive with the anti-p-tyr antiserum were enriched by immunoprecipitation as described above. The proteins were hydrolyzed and phosphoamino acids separated by two-dimensional electrophoresis. […] Lysate of 10⁷ cells from each stage of the life cycle was loaded. TREU 667 is a pleiomorphic strain; EATRO 164 is a monomorphic strain. Independent samples produced by difluoromethylornithine (DFMO) treatment are indicated (D). PF 100% mid-log phase procyclic culture forms. SL Slender bloodforms (EATRO, 100% slender; TREU 75% slender). INT Intermediate bloodforms (approximately 20% slender, 60% intermediate, 20% late intermediate-stumpy). ST Stumpy bloodforms (>60% late intermediate-stumpy, the remainder intermediate). • FIGURE 4 illustrates the solubility analysis of immunoreactive proteins. TREU 667 procyclic form cells were lysed in buffer containing various detergents as indicated. Lanes: 1) 1% NP-40 + 0.25% deoxycholate; 2) 1% NP-40; 3) 2% SDS; 4) freeze/thaw lysis. Solubilized proteins (S), insoluble pellets (P), total lysate (T). • FIGURE 5 illustrates the effect of orthovanadate on cell growth. […] Growth of the parasites was monitored by measuring the optical density at 600 nm over ranges which were previously established to be linearly related to cell density. • FIGURE 6 illustrates the effect of orthovanadate on protein phosphorylation and tyrosine phosphorylation in TREU 667 procyclic forms. […] The cells were rinsed three times and an aliquot equivalent to 2.3 x 10⁵ cells was analyzed by SDS-PAGE and autoradiography. […]"}, "[2]": {"tested_on": "TREU 667 procyclic form cells", "test": "Effect of orthovanadate on cell growth (optical density at 600 nm)", "assay_type": "cell-based, T. brucei", "experimental": "(§1) In the drawings: • FIGURE 1 illustrates the specificity of reactivity with anti-p-tyr antibodies. Lysate from the monomorphic trypanosome strain EATRO 164, clone IHRI 1, procyclic forms (10⁷ cells) was loaded per lane on a 10% sodium dodecyl sulfate polyacrylamide gel electrophoresis (SDS-PAGE) gel. Proteins were transferred to polyvinylidene difluoride membranes, incubated with anti-p-tyr antibodies, and followed by treatment with ¹²⁵I-protein A. Panel A: 0.25 µg ml⁻¹ anti-p-tyr antibodies. Panel B: 1 µg ml⁻¹ anti-p-tyr antibodies, plus 40 mM phenyl phosphate. Molecular weight markers are indicated. Lanes 1 and 2 differ only in the concentration of orthovanadate used during cell processing. • FIGURE 2 illustrates immunoprecipitation and phosphoamino acid analysis. Panel 2A: Western analysis of anti-p-tyr immunoprecipitates. Immunoreactive proteins were enriched by immunoprecipitation as described herein. […] Growth of the parasites was monitored by measuring the optical density at 600 nm over ranges which were previously established to be linearly related to cell density. • FIGURE 6 illustrates the effect of orthovanadate on protein phosphorylation and tyrosine phosphorylation in TREU 667 procyclic forms. […] The cells were rinsed three times and an aliquot equivalent to 2.3 x 10⁵ cells was analyzed by SDS-PAGE and autoradiography. […]"}, "TREU 667 procyclic forms [3]": {"tested_on": "TREU 667 procyclic forms", "test": "SDS-PAGE analysis of proteins of cells metabolically labelled with [32P]-orthophosphate", "assay_type": "cell-based, T. brucei", "conditions": "1.5 µM orthovanadate, started one hour before overnight labelling (FIGURE 6C)", "experimental": "as §1"}, "T. brucei cells": {"tested_on": "T. brucei cells", "test": "Tyrosine phosphorylation with tyrosine kinase inhibitors in the presence of orthovanadate", "assay_type": "cell-based", "conditions": "in the presence of the tyrosine phosphatase inhibitor orthovanadate", "description": "Many inhibitors of mammalian tyrosine kinase have been investigated by the present inventors to determine if tyrosine phosphorylation is reduced in the tested organisms."}}, "data": [{"molecule": "[O]=[V]([O-])([O-])[O-]", "note": "[orthovanadate]", "values": [{"measurement": "time until tyrosine phosphorylation was maximal", "setting": "TREU 667 procyclic forms [1]; 15 µM orthovanadate (FIGURE 6B)", "result": "≤ 2", "unit": "h"}, {"measurement": "level of protein tyrosine phosphorylation of specific substrates, particularly ptp40 and ptp42", "setting": "TREU 667 procyclic forms [1]; after 6 hours in orthovanadate (FIGURE 6A)", "result": "increased dramatically"}, {"measurement": "time until tyrosine phosphorylation returned to near control levels", "setting": "TREU 667 procyclic forms [1]; after the drug was removed (cells grown in orthovanadate, rinsed free of drug)", "result": "≤ 24", "unit": "h"}, {"measurement": "growth and motility of procyclic forms", "setting": "[2]; 1.5 µM orthovanadate", "result": "nonmotile but continued to divide, albeit more slowly"}, {"measurement": "toxicity to trypanosomes", "setting": "[2]; procyclic forms, concentrations approaching those used to cause phenotypic transformation of mammalian cells (30 µM)", "result": "toxic"}, {"measurement": "pattern of 32P-labelled proteins observed after SDS-PAGE", "setting": "TREU 667 procyclic forms [3]", "result": "the same in control and treated cells"}]}, {"molecule": "O=c1c(-c2ccc(O)cc2)coc2cc(O)cc(O)c12", "note": "[genestin]", "values": [{"measurement": "tyrosine phosphorylation in T. brucei cells", "setting": "T. brucei cells", "result": "decreased tyrosine phosphorylation"}]}, {"molecule": "C[C@@H]1C[C@@H]([C@H](O)CC2CC(=O)NC(=O)C2)C(=O)[C@@H](C)C1", "note": "[cycloheximide]", "values": [{"measurement": "effect of cycloheximide on increased tyrosine phosphorylation mediated by orthovanadate", "setting": "TREU 667 procyclic forms [1]", "result": "does not prevent increased tyrosine phosphorylation"}]}]}
